The record followed here is ChEMBL document CHEMBL3301464, “MMV Malaria Box anti-babesial screening”.

A value given as a limit tells only on which side of the number the result lay.

The nature of assay [1]: (§1) MMV: Anti-babesial activity assay. Parasite pRBCs at 1% parasitemia were cultivated in 100 ul with 96-well plates at 2.5% and 5% hematocrits. The parasites were cultivated in triplicate for 4 days without replacement of the medium for each concentration of the compound. It counts as functional, Babesia bovis.
Assay [2] can be described thus: as §1. The assay is classed as functional, Babesia bigemina.
Assay [3] can be described thus: as §1. The assay is classed as functional, Babesia equi.
Assay [4] in a line: as §1. The assay is classed as functional, Babesia caballi.

One may read the IC50 as the concentration needed to halve the response being measured. Regarding `CCOc1ccc(CN2CCN(CC(O)COc3ccc(OCC(O)CN4CCN(Cc5ccc(OCC)cc5)CC4)cc3)CC2)cc1` (stereo not drawn), the IC50 in assay [1] is 0.05 µM; in assay [2] it was 0.13 µM; in assay [3], 0.45 µM; in assay [4] it was 0.37 µM.

Consider `COc1ccccc1N1CCN(C(CNS(=O)(=O)c2ccc(Cl)cc2)c2cccnc2)CC1` (stereo not drawn), for which the IC50 in assay [1] came to 0.669 µM; in assay [2], 2.16 µM; in assay [3], 17.2 µM; in assay [4], 13.5 µM.

Consider `COc1ccc(C(=O)Nc2ccc(Cl)cc2C(=O)Nc2ccncc2)cc1`, for which the 50% inhibitory concentration (IC50) in assay [1] is 3.53 µM; in assay [2], 0.65 µM; in assay [3] it was 10 µM; in assay [4], 6.4 µM.

`C=C(C)CCC(C)N1CCC(N2CCC(C(=O)NCCc3ccccc3)CC2)CC1` (stereo not drawn): the IC50 turned out to be 4.37 µM in assay [1], 2.4 µM in assay [2], 4.89 µM in assay [3] and 12.9 µM in assay [4].

With `O=C1c2ccccc2C2=Nc3ccccc3SC(c3cccc(F)c3)C12` (stereo not drawn), the IC50 in assay [1] was 0.31 µM; in assay [2], 5.3 µM; in assay [3], 14.8 µM; in assay [4], 0.13 µM.

With `OC(CNC1CCCC1)Cn1c2ccccc2c2ccccc21` (stereo not drawn), the half-inhibitory concentration (IC50) was found to be 1 µM in assay [1], 17.3 µM in assay [2], 3.9 µM in assay [3] and 3.53 µM in assay [4].

As for `CN1CCN(c2nc(Nc3ccc(O)cc3)nc3ccccc23)CC1`, the 50% inhibitory concentration (IC50) in assay [1] worked out at 16.8 µM; in assay [2] it was 10.2 µM; in assay [3], 15.6 µM; in assay [4], 9 µM.

On to `CCN1CCN(c2cc(C)c3cc(NC(=O)c4ccc(OC)c(OC)c4)ccc3n2)CC1`, for which the IC50 in assay [1] is 6.69 µM; in assay [2] it was 7.92 µM; in assay [3] it was 0.33 µM; in assay [4] it was 5.93 µM.

As for `CC(C)(C)c1ccc2c(c1)CN(Cc1ccc(Cl)cc1)CO2`, the IC50 is 16.5 µM in assay [1], more than 25 µM in assay [2], 12.8 µM in assay [3] and 5.9 µM in assay [4].

Regarding `COc1cc(C(=O)Nc2ccc(-c3nc4ccccc4[nH]3)cc2)cc(OC)c1OC`, the IC50 amounted to 13.3 µM in assay [1], 1 µM in assay [2], 15.9 µM in assay [3] and 11 µM in assay [4].

Turning to `O=C(Nc1ccccc1O)c1ccc(Oc2cccc(C(=O)Nc3ccccc3O)c2)cc1`, the IC50 in assay [1] was found to be 6.45 µM; in assay [2] it was 2.86 µM; in assay [3], 4.19 µM; in assay [4], 19.4 µM.

For `CC(=O)Nc1nnc(SCc2c(C)cc(C(C)(C)C)cc2C)s1`, the IC50 in assay [1] is more than 25 µM; in assay [2], 11.4 µM; in assay [3], 15.8 µM; in assay [4], 12.8 µM.

On to `C=CC12CCN(CC1)C(C(O)c1ccnc3ccc(OC)cc13)C2` (stereo not drawn), for which the IC50 in assay [1] is 17.3 µM; in assay [2], 14.4 µM; in assay [3] it was 3.21 µM; in assay [4], 13.1 µM.

`Clc1cc(Br)ccc1-c1ccc(CNCC2CCNCC2)o1`: the IC50 amounted to 0.33 µM in assay [1], 4.19 µM in assay [2], 5.93 µM in assay [3] and 12.4 µM in assay [4].

`COCCN(C(=O)Cc1cccs1)C(C(=O)NCc1ccc(OC)cc1)c1ccc(C(C)C)cc1` (stereo not drawn): the IC50 in assay [1] turned out to be 25 µM; in assay [2] it was 13.2 µM; in assay [3], 5.79 µM; in assay [4], 17.2 µM.

For the compound `COc1ccc(C2NCCc3c2[nH]c2ccccc32)cc1CN1CCN(c2ccc(F)cc2)CC1` (stereo not drawn), the IC50 in assay [1] stood at 3.71 µM; in assay [2], 16.5 µM; in assay [3] it was 10.1 µM; in assay [4], 10 µM.

For the compound `O=C(NC(c1ccccc1)c1ccc2cccnc2c1O)c1ccccc1` (stereo not drawn), the IC50 turned out to be 1 µM in assay [1], 0.93 µM in assay [2], 0.47 µM in assay [3] and 0.55 µM in assay [4].

Consider `O=C(Nc1ccc(Cl)cc1)N1CCN(c2ccc3nncn3n2)CC1`, for which the IC50 in assay [1] worked out at 16.3 µM; in assay [2], 1 µM; in assay [3], 1.02 µM; in assay [4] it was 16.3 µM.

Take `Cc1ccc(-c2cc3nc4c(c(O)n3n2)CCCC4)cc1`: the IC50 came out at 7.31 µM in assay [1], 15 µM in assay [2], 7.05 µM in assay [3] and 15.8 µM in assay [4].

In the case of `CCN(CC)CCCNc1ccnc2cc3ccccc3cc12`, the IC50 in assay [1] was 2.7 µM; in assay [2], 1.3 µM; in assay [3], 15.9 µM; in assay [4], 25 µM.

In the case of `Cc1c(C)n(Cc2ccc(F)cc2)c2ccc(C(=O)NCc3ccco3)cc12`, the IC50 in assay [1] was 24.7 µM; in assay [2] it was 0.288 µM; in assay [3], 15.8 µM; in assay [4] it was 10 µM.

For the compound `CCCCCCc1cc(O)c2c3c(c(=O)oc2c1)CCC(C)C3` (stereo not drawn), the IC50 in assay [1] was found to be 5.1 µM; in assay [2] it was 10 µM; in assay [3], 3.26 µM; in assay [4], 15.9 µM.

As for `COc1ccccc1CNC(=O)CCn1c(=O)[nH]c2ccccc2c1=O`, the IC50 in assay [1] is 19.5 µM; in assay [2], 3.9 µM; in assay [3] it was 14.2 µM; in assay [4] it was 4.38 µM.

For the compound `OC(Cn1nnc2ccccc21)Cn1c2ccc(Br)cc2c2cc(Br)ccc21` (stereo not drawn), the half-inhibitory concentration (IC50) in assay [1] was determined as 0.1 µM; in assay [2], 1.3 µM; in assay [3], 12.6 µM; in assay [4], 15.9 µM.

Regarding `Nc1ccc(-c2nc3cc(Cc4ccc5[nH]c(-c6ccc(N)cc6)nc5c4)ccc3[nH]2)cc1`, the IC50 in assay [1] came to 0.086 µM; in assay [2] it was 9.04 µM; in assay [3], 0.8 µM; in assay [4], 1 µM.

With `COc1ccc(/C=C2/SC(=Nc3ccccc3)NC2=O)cc1`, the IC50 in assay [1] was 4.91 µM; in assay [2], 1 µM; in assay [3] it was 0.1 µM; in assay [4], 13.3 µM.

For the compound `COc1ccc(-c2nonc2NC(=O)c2cccc(Cl)c2)cc1OC`, the IC50 in assay [1] turned out to be 10 µM; in assay [2] it was 8.2 µM; in assay [3], 16.6 µM; in assay [4] it was 11.5 µM.

For `CCc1ccc(Nc2cc(C)nc3nc(C)nn23)cc1`, the half-inhibitory concentration (IC50) in assay [1] came to 13.5 µM; in assay [2] it was 10 µM; in assay [3], 10 µM; in assay [4], 0.074 µM.

With `CCOC(=O)c1cnc2ccc(OC)cc2c1Nc1ccc(N2CCN(C)CC2)cc1`, the IC50 stood at 0.061 µM in assay [1], 1 µM in assay [2], 10 µM in assay [3] and 8.25 µM in assay [4].

As to `CCOC(=O)C1CCN(C(=O)CN2C(=O)c3ccccc3C2c2c[nH]c3ccccc23)CC1` (stereo not drawn), the IC50 in assay [1] was more than 25 µM; in assay [2], 25 µM; in assay [3] it was 4.19 µM; in assay [4], 5.35 µM.

`Cc1cc(Nc2ccc(OCc3ccccc3)cc2)nc2cc(O)ccc12`: the half-inhibitory concentration (IC50) in assay [1] was determined as 0.17 µM; in assay [2] it was 3.45 µM; in assay [3] it was 6.31 µM; in assay [4] it was 4.91 µM.

With `CCCc1c(C)nc2ccc(Br)cc2c1O`, the 50% inhibitory concentration (IC50) worked out at 16.5 µM in assay [1], 11.9 µM in assay [2], 13.3 µM in assay [3] and 0.1 µM in assay [4].

In the case of `CCC(c1ccccc1)c1nn2c(-c3cccs3)nnc2s1` (stereo not drawn), the IC50 in assay [1] was 18.6 µM; in assay [2], 16.4 µM; in assay [3] it was 7.87 µM; in assay [4], 15.8 µM.

On to `COc1ccc(C2c3ccc4ccccc4c3Oc3ncn(CCCN(C)C)c(=N)c32)cc1` (stereo not drawn), for which the IC50 in assay [1] is 0.052 µM; in assay [2], 0.033 µM; in assay [3] it was 0.49 µM; in assay [4], 7.26 µM.

`CCCCN(CCCC)S(=O)(=O)c1ccc(NC(=O)c2ccco2)cc1`: the IC50 in assay [1] was 10 µM; in assay [2] it was 25 µM; in assay [3] it was 14.2 µM; in assay [4], 3.81 µM.

Take `COc1ccccc1C(=O)ON=C(N)Cc1cccc2ccccc12`: the IC50 in assay [1] came out at 22.4 µM; in assay [2] it was 19.8 µM; in assay [3], 7.65 µM; in assay [4], 6.86 µM.

For `CCCOCc1cc(CN2CCN(c3cccc(Cl)c3)CC2)c(O)c2ncccc12`, the IC50 in assay [1] stood at 1.74 µM; in assay [2], 3.86 µM; in assay [3], 2.95 µM; in assay [4], 5.9 µM.

For `COc1ccc(CCN2C(=O)c3[nH]nc(-c4cc(Cl)c(C)cc4O)c3C2c2ccccc2F)cc1` (stereo not drawn), the 50% inhibitory concentration (IC50) in assay [1] amounted to 5.9 µM; in assay [2] it was 0.63 µM; in assay [3], 7.65 µM; in assay [4], 9.01 µM.

For the compound `O=C(Cc1ccccc1)NC(c1ccc(Cl)cc1)c1c(O)ccc2ccccc12` (stereo not drawn), the IC50 in assay [1] turned out to be 1 µM; in assay [2], 13.1 µM; in assay [3] it was 12.7 µM; in assay [4], 10 µM.

On to `CC(=O)NCCc1nc2ccccc2n1Cc1ccc(C(C)C)cc1`, for which the IC50 in assay [1] stood at 7.96 µM; in assay [2], 8.2 µM; in assay [3], 1 µM; in assay [4] it was 10 µM.

As for `CN(C)CCCNCc1ccc(-c2ccc(F)c(Cl)c2)o1`, the half-maximal inhibitory concentration (IC50) in assay [1] amounted to 2.45 µM; in assay [2], 4.61 µM; in assay [3] it was 4.09 µM; in assay [4], 0.69 µM.

For the compound `Cc1cc(C)c2nc(N3CCC(C(=O)NCCCN4CCC(N5CCCCC5)CC4)CC3)sc2c1`, the IC50 in assay [1] came out at 2.74 µM; in assay [2], 3.91 µM; in assay [3] it was 0.64 µM; in assay [4] it was 4.77 µM.

As to `O=C(Nc1ccsc1C(=O)NC1CCCCC1)c1ccc(F)cc1`, the IC50 in assay [1] worked out at 0.08 µM; in assay [2], 0.1 µM; in assay [3], 5.64 µM; in assay [4], 17.7 µM.

Turning to `Cc1ccc(CSCc2ccc(C(=O)NC3CC3)o2)cc1`, the concentration for half-maximal inhibition (IC50) in assay [1] was 8.31 µM; in assay [2] it was 15.2 µM; in assay [3], 4.48 µM; in assay [4], 12.9 µM.

As for `CCOc1ccc(CCNC(=O)c2cccs2)cc1OCC`, the IC50 in assay [1] was 25 µM; in assay [2], more than 25 µM; in assay [3] it was 13.9 µM; in assay [4] it was 15.3 µM.

Turning to `COc1cc(-c2nc(-c3ccccc3)c(-c3ccccc3)[nH]2)cc(OC)c1O`, the IC50 turned out to be 8.03 µM in assay [1], 3.34 µM in assay [2], 12 µM in assay [3] and 21.7 µM in assay [4].

Regarding `O=C(Nc1ccc(Br)cc1)Nc1cccc(Cl)c1`, the half-inhibitory concentration (IC50) in assay [1] was 7.66 µM; in assay [2], 12.8 µM; in assay [3], 9.12 µM; in assay [4], more than 25 µM.
